The values that follow come from patent EP2974714B1, “USE OF DERIVATIVES WITH C-O-P BONDS IN PATIENTS WITH RENAL FAILURE” (LABORATORIS SANIFIT, S.L., priority 2013, dated 2014).

Molecules are shown by their SMILES.

Series [1] is described as follows: In vitro binding kinetics of IP6 to HAP. Particulars: 130 mg HAP. The method, then: Experimental: 130 mg HAP was incubated (in triplicate) with 7.6 µM IP6, at 37°C, pH 7.4, for different time intervals while stirring continuously.
Series [2] in a line: Release of IP6 from the HAP surface. It counts as binding. The conditions noted are these: after incubation for 2 days in IP6-free solution. The method, then:
Experimental: 130 mg HAP was incubated in triplicate with 7.6 µM IP6, at 37°C, pH 7.4, for different time intervals while stirring continuously. Subsequently, the HAP with adsorbed IP6 was placed in an IP6-free solution and the amount of IP6 released from the surface thereof evaluated at different timepoints.

Series [3] in a line: Calcium chelation by IP6 in vitro (calcium-selective electrode). The series is classed as physicochemical. The conditions noted are these: 2.5 mM calcium in NaCl 0.15 M, pH 7.40. The method, then:
Experimental: a 2.5 mM of calcium in NaCl 0.15 M, pH 7.40, was pipetted with increasing concentrations of IP6. The amount of free ionic calcium was measured potentiometrically using a calcium-selective electrode and a potentiometer.

Series [4] relates to vit D-induced cardiovascular calcification in rats. Put plainly: Inhibition of vit D-induced (300,000 IU/kg x 3) cardiovascular calcification by s.c. IP6. The series is classed as in vivo, male SD rats. The method, then:
Experimental: male SD rats were divided into 9 groups. Two of said groups (sham and control groups) received s.c. saline 2 ml/kg; 6 groups received s.c. […] One group was treated with a s.c. Alzet pump loaded with 200 mg/ml IP6. Calcification was induced by oral administration of 300,000 IU/kg vitamin D (2 ml/kg) for 3 days starting on treatment day 3. […] The calcium content in heart, aorta and kidneys was determined after treatment for 7 days.

Series [5] deals with tissue calcification in an animal model of chronic renal impairment (adenine). Kind of series: Adenine model, bolus-type s.c. administration. The series is classed as in vivo, male Wistar rats. Particulars: s.c. bolus 3, 10 and 30 mg/kg, 28 days, adenine uraemic rats. The method, then:
Experimental: CKD was induced in 4 groups (n=12) of male Wistar rats by oral (p.o.) treatment with adenine (600 mg/kg/day) daily for 10 days. After treatment with adenine, the rats received alpha-calcidol at a dose of 300 ng/kg (3x/week, p.o.) until day 28. From day 0 until sacrifice (day 28), the animals were treated with a 2 ml/kg s.c. bolus of 0, 3, 10 and 30 mg/kg IP6. At each treatment, 3 additional animals were included to evaluate the […] for IP6. After 28 days the aorta, heart and right kidney were collected, and the tissue calcium content determined.

A further series concerns cardiovascular function. Kind of series: Cardiovascular function after bolus-type intravenous administration in conscious dogs by telemetry. The series is classed as in vivo. As for the experimental part: Experimental: 4 male dogs, 2 per dose, were injected with 10, 15 and 30 mg/kg. Two washout days were introduced between the different doses. The ECGs were recorded telemetrically. Blood ionic calcium concentrations were determined on different days to the ECG measurements.

Series [6] deals with progression of vitamin D-induced vascular calcification. Put plainly: Progression of vitamin D-induced calcification (100,000 IU/kg x 3), rat model for 2 weeks. Particulars: highest dose (60 mg/kg s.c.), days 5 to 14. The series is classed as in vivo, SD rats. As for the experimental part:
Experimental: 48 SD rats were treated x3 with vitamin D (s.c. 100,000 IU/kg) to induce tissue calcification. Calcification was allowed to progress for 5 days, and treatment with 0, 10 or 60 mg/kg IP6 s.c. was administered from day 5 until day 14. Calcification of the kidneys and heart was evaluated.

As a reminder, the EC50 is the concentration that produces a half-maximal response.

For `O=P(O)(O)O[C@H]1[C@H](OP(=O)(O)O)[C@@H](OP(=O)(O)O)[C@H](OP(=O)(O)O)[C@@H](OP(=O)(O)O)[C@H]1OP(=O)(O)O` [IP6, inositol hexaphosphate], the “time at which adsorption maximum is reached” value in series [1] (7.6 µM IP6, 37°C, pH 7.4) is 60 min. Moreover, the “share of maximum binding achieved” value in series [1] (after 5 minutes, 7.6 µM IP6) was “Around 80%”. Moreover, in series [2], the “IP6 remaining bound to the HAP surface” value worked out at 80%. In series [3], the “IP6 concentration above which ionic calcium chelation is significant” value is “above 379 µM” and the “IP6 concentration at which chelation saturates” value stood at 3788 µM. The EC50 in series [3] (read-out: EC50 of ionic calcium chelation) stood at 539 µM. Besides, the reduction in calcification in series [4] (prolonged administration, s.c. Alzet pump loaded with 200 mg/ml IP6) amounted to 85%. The “efficacy (inhibition of calcification)” value in series [4] (s.c. doses of 60 and 100 mg/kg) is reported as “approximately 60%”. The “minimum dose that produced a significant effect on calcification” value in series [4] (s.c., 7 days treatment) stood at 10 mg/kg. Also, in series [4] (s.c., dose-response), the “EC50 for inhibition of aortic calcification” value is recorded as 3.75 mg/kg and the “Emax for inhibition of aortic calcification” value is reported as 65.5%. Besides, in series [5], the “calcification inhibition (aorta, heart, right kidney)” value is on record as “no evidence of calcification inhibition”. In addition, in the series with cardiovascular function (i.v. bolus), the “dose above which mild tachycardia and prolonged QTc interval were observed” value is “above 15 mg/kg”; the “dose above which tachycardia and QTc prolongation become significant” value was “above 30 mg/kg”. Also, the “effects on ECG parameters or ionic calcium concentrations” value in the series on cardiovascular function (i.v. bolus 10 mg/kg) is given as “no significant effects”. Further, the “decrease in ionic calcium” value in the series on cardiovascular function (i.v. bolus, correlated with the prolonged QTc interval) is 30%. Further, in series [6], the “inhibition of the progression of heart calcification” value is listed as 100% and the “inhibition of the progression of renal calcification” value was determined as 95%.
